Measured values: ChEMBL document CHEMBL1201862, “PubChem BioAssay data set” (2004)
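How tested: cells in 96-well plates exposed to compound for 48 hours at five concentrations. GI50 = concentration required for 50% inhibition of growth.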 Activity calls are given as the source filed them. Rule as the data show it: active = GI50 up to about 1.1 µM and inactive = higher.

How the values were obtained:
Assay in all cases: inhibition of tumour cell growth, NCI panel, 48 h
A549 = tested on: A549
CAKI-1 = tested on: CAKI-1
DU-145 = tested on: DU-145
HCT-15 = tested on: HCT-15
K562 = tested on: K562
MDA-N = tested on: MDA-N
NCI-H226 = tested on: NCI-H226
NCI-H522 = tested on: NCI-H522
NCI/ADR-RES = tested on: NCI/ADR-RES
OVCAR-4 = tested on: OVCAR-4
OVCAR-8 = tested on: OVCAR-8
PC-3 = tested on: PC-3
RXF 393 = tested on: RXF 393
SF-268 = tested on: SF-268
SK-OV-3 = tested on: SK-OV-3
SW-620 = tested on: SW-620
TK-10 = tested on: TK-10
UACC-257 = tested on: UACC-257
UACC-62 = tested on: UACC-62

Measured: GI50

COc1oc(C(=O)NC2CCCCC2)c(-c2ccc(Cl)cc2)c1S(=O)(=O)c1ccccc1
44.9 µM: HCT-15
inactive: A549 23.7 µM | CAKI-1 3.37 µM | DU-145 18.3 µM | K562 12.3 µM | MDA-N 64 µM | NCI-H226 52.2 µM | NCI-H522 1.34 µM | NCI/ADR-RES 2.76 µM | OVCAR-4 1.7 µM | OVCAR-8 6.4 µM | PC-3 10.7 µM | RXF 393 3.02 µM | SF-268 3.46 µM | SK-OV-3 25.6 µM | SW-620 38.2 µM | TK-10 > 53.1 µM | UACC-257 11.8 µM | UACC-62 17.1 µM

O=C(O)c1ccc(SSc2ccc(C(=O)O)cn2)nc1
> 100 µM: HCT-15
inactive: A549 > 100 µM | CAKI-1 > 100 µM | DU-145 > 100 µM | K562 > 100 µM | MDA-N > 100 µM | NCI-H226 72.3 µM | NCI-H522 > 100 µM | NCI/ADR-RES > 100 µM | OVCAR-4 > 100 µM | OVCAR-8 > 100 µM | PC-3 > 100 µM | RXF 393 > 100 µM | SF-268 > 100 µM | SK-OV-3 > 100 µM | SW-620 > 100 µM | TK-10 > 100 µM | UACC-257 > 100 µM | UACC-62 > 100 µM

N#CSc1ccc(S(N)(=O)=O)cc1
40.4 µM: HCT-15
inactive: A549 > 100 µM | CAKI-1 56.5 µM | DU-145 > 100 µM | K562 35.2 µM | MDA-N 33.2 µM | NCI-H226 > 100 µM | NCI-H522 10.7 µM | NCI/ADR-RES > 100 µM | OVCAR-4 30.3 µM | OVCAR-8 44.8 µM | PC-3 48 µM | RXF 393 26.1 µM | SF-268 > 100 µM | SK-OV-3 > 100 µM | SW-620 23.9 µM | TK-10 75.5 µM | UACC-257 > 100 µM | UACC-62 70 µM

C=CC[C@@]1(C)CCCCCCCCC[C@@](C)(CC=C)C1=O
29.4 µM: HCT-15
inactive: A549 40 µM | CAKI-1 35.4 µM | DU-145 50.2 µM | K562 28.7 µM | MDA-N 50.8 µM | NCI-H226 23.8 µM | NCI-H522 35.2 µM | NCI/ADR-RES 32.7 µM | OVCAR-4 > 100 µM | OVCAR-8 21.5 µM | PC-3 37.1 µM | RXF 393 16.9 µM | SF-268 36.4 µM | SK-OV-3 41.1 µM | SW-620 24.6 µM | TK-10 99.1 µM | UACC-257 25.2 µM | UACC-62 27.9 µM

Cc1c(C#N)c2nnn(-c3cccc(Cl)c3)c(=O)n2c1-c1ccccc1
3.83 µM: HCT-15
active: K562 0.541 µM | MDA-N 0.428 µM | PC-3 0.875 µM
inactive: A549 4.5 µM | CAKI-1 6.62 µM | DU-145 3.46 µM | NCI-H226 2.25 µM | NCI-H522 1.93 µM | NCI/ADR-RES 3.1 µM | OVCAR-4 8.61 µM | OVCAR-8 5.31 µM | RXF 393 1.85 µM | SF-268 6.81 µM | SK-OV-3 3.08 µM | SW-620 4.3 µM | TK-10 9.91 µM | UACC-257 26.3 µM | UACC-62 4.43 µM

CC(C)(Cc1ccccc1)Cc1cc(O)ccc1O
inactive: A549 23.7 µM | CAKI-1 20.7 µM | DU-145 23.1 µM | K562 12.4 µM | MDA-N 16.4 µM | NCI-H226 33.8 µM | NCI-H522 4.93 µM | NCI/ADR-RES 16.4 µM | OVCAR-4 16.4 µM | OVCAR-8 17.2 µM | PC-3 22.2 µM | RXF 393 13.6 µM | SF-268 13.9 µM | SK-OV-3 24.7 µM | SW-620 22.6 µM | TK-10 36.2 µM | UACC-257 13.9 µM | UACC-62 23.7 µM
17.5 µM: HCT-15

COC(=O)C1(Cc2ccc3c(c2)CCC3)Cc2ccc3c(c2C1=O)CCC3 (stereo not drawn)
3.66 µM: HCT-15
inactive: A549 9.48 µM | CAKI-1 5.45 µM | DU-145 33.6 µM | K562 3.37 µM | MDA-N 2.01 µM | NCI-H226 10.5 µM | NCI-H522 3.92 µM | NCI/ADR-RES 3.07 µM | OVCAR-4 7.73 µM | OVCAR-8 15.2 µM | PC-3 9.02 µM | RXF 393 2.11 µM | SF-268 10 µM | SK-OV-3 20.4 µM | SW-620 4.11 µM | TK-10 11.8 µM | UACC-257 8.65 µM | UACC-62 3.84 µM
